Results taken from patent publication US6596730B1, “Phenyl urea and phenyl thiourea derivatives” (SmithKline Beecham p.l.c., priority 1999, dated 2003).
Counter-ions that a name gives are not always drawn.

Key:
human orexin-1 receptor = target: T1, human orexin-1 receptor (Homo sapiens, UniProt O43613); assay: Determination of orexin-1 receptor antagonist activity (FLIPR calcium mobilisation, HEK293 cells, against 3.0 nM human orexin-A); format: cell-based; conditions: HEK293 cells expressing human orexin-1 receptor; Kb=IC50/(1+([3/EC50]); agonist 3.0 nM human orexin-A
T1 construct: expressed in transfected cells; host or cells: HEK293
T1 sequence (O43613 1-425): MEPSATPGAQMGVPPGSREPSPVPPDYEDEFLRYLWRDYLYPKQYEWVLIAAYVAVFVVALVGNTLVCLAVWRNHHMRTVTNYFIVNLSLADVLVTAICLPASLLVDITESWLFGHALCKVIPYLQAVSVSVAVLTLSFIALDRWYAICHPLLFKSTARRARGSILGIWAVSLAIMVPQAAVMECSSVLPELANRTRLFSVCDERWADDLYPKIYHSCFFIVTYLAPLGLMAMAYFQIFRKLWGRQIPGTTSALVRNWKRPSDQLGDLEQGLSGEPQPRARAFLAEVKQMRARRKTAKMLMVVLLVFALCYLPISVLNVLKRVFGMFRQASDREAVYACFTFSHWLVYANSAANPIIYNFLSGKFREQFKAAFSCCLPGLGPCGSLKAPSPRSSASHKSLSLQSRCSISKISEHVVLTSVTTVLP
Method: The orexin-1 receptor antagonist activity of the compounds of formula (I) was determined in accordance with the following experimental method.
HEK293 cells expressing the human orexin-1 receptor were grown in cell medium (MEM medium with Earl's salts) containing 2 mM L-Glutamine, 0.4 mg/mL G418 Sulfate from GIBCO BRL and 10% heat inactivated fetal calf serum from Gibco BRL. The cells were seeded at 20,000 cells/100 μl/well into 96-well black clear bottom sterile plates from Costar which had been pre-coated with 10 μg/well of poly-L-lysine from SIGMA. The seeded plates were incubated overnight at 37° C. in 5% CO2.
Agonists were prepared as 1 mM stocks in water:DMSO (1:1). […] Antagonist IC^50 values (the concentration of compound needed to inhibit 50% of the agonist response) were determined against 3.0 nM human orexin-A using 11×half log unit dilutions in Tyrode's buffer containing 10% DMSO and probenecid. On the day of assay 50 μl of cell medium containing probenecid (Sigma) and Fluo3AM (Texas Fluorescence Laboratories) was added (Quadra, Tomtec) to each well to give final concentrations of 2.5 mM and 4 μM, respectively. […] Cell plates were then transferred to the Fluorescent Imaging Plate Reader (FLIPR, Molecular Devices) instrument and maintained at 37° C. in humidified air. […] Agonists were added (by the FLIPR) after 20 sec (during continuous reading). […]

rat = assay: Rat sleep/EEG studies, central administration; format: in vivo; conditions: central administration at the onset of the normal sleep period
From the text: Therefore antagonists of its receptor may be useful in the treatment of sleep disorders including insomnia.

freely-feeding rats = conditions: central administration, 4 hour time period; cited from earlier work

| Compound | Kb (human orexin-1 receptor) [nM] | effect on arousal / sleep (rat) | increase in food intake over control rats receiving vehicle (freely-feeding rats) |
| --- | --- | --- | --- |
| COc1ccc(NC(=O)Nc2cc(C)nc3cccnc23)cc1C(=O)NCC1CC1 [Example 2, N-Cyclopropylmethyl-2-methoxy-5-[3-(2-methyl-[1,5]-naphthyridin-4-yl)ureido]benzamide Hydrochloride] | < 31.6 |  |  |
| orexin-A: ligand for the orexin-1 receptor, agonist of the orexin receptors; 33-residue peptide, sequence given in the 1st table (QPLPDCCRQKTCSCRLYELLHGAGNHAAGILTL; Orexin-A; UniProt O43612 34-66, looked up) |  | dose-related increase in arousal | approximately four-fold |
